ChEMBL document CHEMBL3885861, “Open TG-GATES”

Organism: Rattus norvegicus
Experiment: Open TG-GATES - Regimen: Single
Format: toxicity, organism-based, Sprague-Dawley
Design: regimen Single, gender Male, age 6 weeks
Conditions: in vivo, po, route gavage; for APTT / Bas / Eos / Fbg / Hb / Ht / Lym / MCH / MCHC / MCV / Mono / Neu / PT / Plat / RBC / Ret / WBC: tissue Blood; for KIDNEY_L / KIDNEY_R / KIDNEY_TOTAL: tissue Kidney; for LIVER: tissue Liver; for A/G / ALP / ALT / AST / BUN / CRE / Ca / Cl / DBIL / GLC / IP / K / LDH / Na / PL / RALB / TBIL / TC / TG / TP / gamma-GTP: tissue Plasma
[1] = 60 mg/kg, 3 h, dose level Middle
[2] = 60 mg/kg, 6 h, dose level Middle
[3] = 60 mg/kg, 9 h, dose level Middle
[4] = 60 mg/kg, 24 h, dose level Middle
[5] = 200 mg/kg, 3 h, dose level High
[6] = 200 mg/kg, 6 h, dose level High
[7] = 200 mg/kg, 9 h, dose level High
[8] = 200 mg/kg, 24 h, dose level High

CC(CN1c2ccccc2Sc2ccccc21)N(C)C (centres undefined) [PROMETHAZINE]
TERMINAL_BW [1]: 213.4 g
APTT [1]: 22.4 s
Bas [1]: 0%
Eos [1]: 1%
Fbg [1]: 317 mg/dL
Hb [1]: 13.2 g/dL
Ht [1]: 40.6%
Lym [1]: 71.6%
MCH [1]: 20.2 pg
MCHC [1]: 32.6%
MCV [1]: 62 fL
Mono [1]: 2.2%
Neu [1]: 25%
PT [1]: 16.4 s
Plat [1]: 126 x10_4/uL
RBC [1]: 655.2 x10_4/ul
Ret [1]: 7.3%
WBC [1]: 64.7 x10_2/uL
KIDNEY_L [1]: 0.9 g
KIDNEY_R [1]: 0.9 g
KIDNEY_TOTAL [1]: 1.9 g
LIVER [1]: 9.3 g
A/G [1]: 1.3
ALP [1]: 1673 IU/L
ALT [1]: 56.2 IU/L
AST [1]: 87.6 IU/L
BUN [1]: 9.6 mg/dL
CRE [1]: 0.2 mg/dL
Ca [1]: 10.5 mg/dL
Cl [1]: 105.6 meq/L
DBIL [1]: 0.024 mg/dL
GLC [1]: 172.8 mg/dL
IP [1]: 9.6 mg/dL
K [1]: 4.3 meq/L
LDH [1]: 222.6 IU/L
Na [1]: 142.6 meq/L
PL [1]: 132 mg/dL
RALB [1]: 3.1 g/dL
TBIL [1]: 0.016 mg/dL
TC [1]: 75 mg/dL
TG [1]: 50 mg/dL
TP [1]: 5.5 g/dL
gamma-GTP [1]: 1.2 IU/L
TERMINAL_BW [2]: 210 g
APTT [2]: 23.8 s
Bas [2]: 0%
Eos [2]: 0.8%
Fbg [2]: 322 mg/dL
Hb [2]: 13.4 g/dL
Ht [2]: 40.7%
Lym [2]: 77.2%
MCH [2]: 20.1 pg
MCHC [2]: 33%
MCV [2]: 61.1 fL
Mono [2]: 2.8%
Neu [2]: 18.4%
PT [2]: 16.3 s
Plat [2]: 112.6 x10_4/uL
RBC [2]: 667.8 x10_4/ul
Ret [2]: 7.3%
WBC [2]: 85.9 x10_2/uL
KIDNEY_L [2]: 0.9 g
KIDNEY_R [2]: 0.9 g
KIDNEY_TOTAL [2]: 1.8 g
LIVER [2]: 8.6 g
A/G [2]: 1.3
ALP [2]: 1478.6 IU/L
ALT [2]: 43.2 IU/L
AST [2]: 74.6 IU/L
BUN [2]: 9.4 mg/dL
CRE [2]: 0.2 mg/dL
Ca [2]: 10.9 mg/dL
Cl [2]: 105.2 meq/L
DBIL [2]: 0.016 mg/dL
GLC [2]: 180.6 mg/dL
IP [2]: 9.6 mg/dL
K [2]: 4.3 meq/L
LDH [2]: 192.2 IU/L
Na [2]: 141.8 meq/L
PL [2]: 125 mg/dL
RALB [2]: 3 g/dL
TBIL [2]: 0.022 mg/dL
TC [2]: 71.6 mg/dL
TG [2]: 49 mg/dL
TP [2]: 5.5 g/dL
gamma-GTP [2]: 1.4 IU/L
TERMINAL_BW [3]: 211 g
APTT [3]: 24.1 s
Bas [3]: 0%
Eos [3]: 1%
Fbg [3]: 315.8 mg/dL
Hb [3]: 13.3 g/dL
Ht [3]: 40.8%
Lym [3]: 78.6%
MCH [3]: 20.4 pg
MCHC [3]: 32.6%
MCV [3]: 62.5 fL
Mono [3]: 3%
Neu [3]: 17.2%
PT [3]: 16.6 s
Plat [3]: 122 x10_4/uL
RBC [3]: 652.4 x10_4/ul
Ret [3]: 7.6%
WBC [3]: 101.4 x10_2/uL
KIDNEY_L [3]: 0.9 g
KIDNEY_R [3]: 0.9 g
KIDNEY_TOTAL [3]: 1.8 g
LIVER [3]: 8.3 g
A/G [3]: 1.3
ALP [3]: 1318.2 IU/L
ALT [3]: 43.2 IU/L
AST [3]: 69.6 IU/L
BUN [3]: 11.6 mg/dL
CRE [3]: 0.2 mg/dL
Ca [3]: 10.7 mg/dL
Cl [3]: 106.2 meq/L
DBIL [3]: 0.02 mg/dL
GLC [3]: 179.2 mg/dL
IP [3]: 9.5 mg/dL
K [3]: 4.2 meq/L
LDH [3]: 155.8 IU/L
Na [3]: 140.2 meq/L
PL [3]: 131 mg/dL
RALB [3]: 3 g/dL
TBIL [3]: 0.026 mg/dL
TC [3]: 77 mg/dL
TG [3]: 46.8 mg/dL
TP [3]: 5.4 g/dL
gamma-GTP [3]: 1.2 IU/L
TERMINAL_BW [4]: 217.9 g
APTT [4]: 23.6 s
Bas [4]: 0%
Eos [4]: 1%
Fbg [4]: 311.6 mg/dL
Hb [4]: 13.4 g/dL
Ht [4]: 40.3%
Lym [4]: 80%
MCH [4]: 21.1 pg
MCHC [4]: 33.3%
MCV [4]: 63.4 fL
Mono [4]: 2.2%
Neu [4]: 16%
PT [4]: 16.7 s
Plat [4]: 126.1 x10_4/uL
RBC [4]: 635.4 x10_4/ul
Ret [4]: 6.8%
WBC [4]: 113 x10_2/uL
KIDNEY_L [4]: 1 g
KIDNEY_R [4]: 1 g
KIDNEY_TOTAL [4]: 1.9 g
LIVER [4]: 9.5 g
A/G [4]: 1.3
ALP [4]: 1785 IU/L
ALT [4]: 46.8 IU/L
AST [4]: 68 IU/L
BUN [4]: 17.6 mg/dL
CRE [4]: 0.2 mg/dL
Ca [4]: 10.8 mg/dL
Cl [4]: 106.4 meq/L
DBIL [4]: 0.004 mg/dL
GLC [4]: 190.6 mg/dL
IP [4]: 7.4 mg/dL
K [4]: 4.1 meq/L
LDH [4]: 185.4 IU/L
Na [4]: 142 meq/L
PL [4]: 127.6 mg/dL
RALB [4]: 3.1 g/dL
TBIL [4]: 0.014 mg/dL
TC [4]: 68.8 mg/dL
TG [4]: 73 mg/dL
TP [4]: 5.5 g/dL
gamma-GTP [4]: 1.2 IU/L
TERMINAL_BW [5]: 219.2 g
APTT [5]: 23.5 s
Bas [5]: 0%
Eos [5]: 0.8%
Fbg [5]: 315.2 mg/dL
Hb [5]: 13.5 g/dL
Ht [5]: 40.9%
Lym [5]: 78.4%
MCH [5]: 21 pg
MCHC [5]: 32.9%
MCV [5]: 63.9 fL
Mono [5]: 3%
Neu [5]: 17%
PT [5]: 16.4 s
Plat [5]: 126.9 x10_4/uL
RBC [5]: 640.8 x10_4/ul
Ret [5]: 7.8%
WBC [5]: 66.9 x10_2/uL
KIDNEY_L [5]: 0.9 g
KIDNEY_R [5]: 1 g
KIDNEY_TOTAL [5]: 1.9 g
LIVER [5]: 9.7 g
A/G [5]: 1.3
ALP [5]: 1534.6 IU/L
ALT [5]: 59 IU/L
AST [5]: 90.2 IU/L
BUN [5]: 11.8 mg/dL
CRE [5]: 0.1 mg/dL
Ca [5]: 10.8 mg/dL
Cl [5]: 105.4 meq/L
DBIL [5]: 0.036 mg/dL
GLC [5]: 181 mg/dL
IP [5]: 10.1 mg/dL
K [5]: 4.3 meq/L
LDH [5]: 211.8 IU/L
Na [5]: 141.6 meq/L
PL [5]: 135.4 mg/dL
RALB [5]: 3.2 g/dL
TBIL [5]: 0.024 mg/dL
TC [5]: 77.2 mg/dL
TG [5]: 47.4 mg/dL
TP [5]: 5.6 g/dL
gamma-GTP [5]: 1.2 IU/L
TERMINAL_BW [6]: 215.1 g
APTT [6]: 24 s
Bas [6]: 0%
Eos [6]: 0.4%
Fbg [6]: 348.2 mg/dL
Hb [6]: 13.5 g/dL
Ht [6]: 40.8%
Lym [6]: 72.4%
MCH [6]: 20.7 pg
MCHC [6]: 33.1%
MCV [6]: 62.7 fL
Mono [6]: 2.6%
Neu [6]: 23.4%
PT [6]: 16.5 s
Plat [6]: 123.7 x10_4/uL
RBC [6]: 650.4 x10_4/ul
Ret [6]: 7.5%
WBC [6]: 56.6 x10_2/uL
KIDNEY_L [6]: 0.9 g
KIDNEY_R [6]: 0.9 g
KIDNEY_TOTAL [6]: 1.9 g
LIVER [6]: 9.1 g
A/G [6]: 1.2
ALP [6]: 1235.6 IU/L
ALT [6]: 44.8 IU/L
AST [6]: 77.8 IU/L
BUN [6]: 9.8 mg/dL
CRE [6]: 0.2 mg/dL
Ca [6]: 10.7 mg/dL
Cl [6]: 106.4 meq/L
DBIL [6]: 0.018 mg/dL
GLC [6]: 184.8 mg/dL
IP [6]: 9.4 mg/dL
K [6]: 4.4 meq/L
LDH [6]: 237.2 IU/L
Na [6]: 141 meq/L
PL [6]: 130.2 mg/dL
RALB [6]: 3.1 g/dL
TBIL [6]: 0.016 mg/dL
TC [6]: 76 mg/dL
TG [6]: 42 mg/dL
TP [6]: 5.7 g/dL
gamma-GTP [6]: 1.4 IU/L
TERMINAL_BW [7]: 208.1 g
APTT [7]: 24 s
Bas [7]: 0%
Eos [7]: 0.6%
Fbg [7]: 316.4 mg/dL
Hb [7]: 13.6 g/dL
Ht [7]: 41.5%
Lym [7]: 76%
MCH [7]: 20.4 pg
MCHC [7]: 32.9%
MCV [7]: 62.2 fL
Mono [7]: 2.2%
Neu [7]: 20.8%
PT [7]: 16.4 s
Plat [7]: 129.1 x10_4/uL
RBC [7]: 667.2 x10_4/ul
Ret [7]: 7.4%
WBC [7]: 67.2 x10_2/uL
KIDNEY_L [7]: 0.9 g
KIDNEY_R [7]: 0.9 g
KIDNEY_TOTAL [7]: 1.8 g
LIVER [7]: 8.4 g
A/G [7]: 1.2
ALP [7]: 1643.2 IU/L
ALT [7]: 39.6 IU/L
AST [7]: 69.2 IU/L
BUN [7]: 10 mg/dL
CRE [7]: 0.2 mg/dL
Ca [7]: 10.5 mg/dL
Cl [7]: 106.2 meq/L
DBIL [7]: 0.026 mg/dL
GLC [7]: 187 mg/dL
IP [7]: 9.1 mg/dL
K [7]: 4.2 meq/L
LDH [7]: 178.8 IU/L
Na [7]: 141 meq/L
PL [7]: 133.6 mg/dL
RALB [7]: 3.1 g/dL
TBIL [7]: 0.016 mg/dL
TC [7]: 75.6 mg/dL
TG [7]: 43 mg/dL
TP [7]: 5.6 g/dL
gamma-GTP [7]: 1 IU/L
TERMINAL_BW [8]: 209.6 g
APTT [8]: 22.3 s
Bas [8]: 0%
Eos [8]: 0.8%
Fbg [8]: 311.2 mg/dL
Hb [8]: 13.7 g/dL
Ht [8]: 41.5%
Lym [8]: 77.8%
MCH [8]: 20.1 pg
MCHC [8]: 33%
MCV [8]: 60.8 fL
Mono [8]: 2.4%
Neu [8]: 19%
PT [8]: 16.8 s
Plat [8]: 138.5 x10_4/uL
RBC [8]: 684.4 x10_4/ul
Ret [8]: 6.4%
WBC [8]: 71.5 x10_2/uL
KIDNEY_L [8]: 0.9 g
KIDNEY_R [8]: 0.9 g
KIDNEY_TOTAL [8]: 1.9 g
LIVER [8]: 8.6 g
A/G [8]: 1.3
ALP [8]: 1472.4 IU/L
ALT [8]: 40.8 IU/L
AST [8]: 68 IU/L
BUN [8]: 14.6 mg/dL
CRE [8]: 0.2 mg/dL
Ca [8]: 10.7 mg/dL
Cl [8]: 107.6 meq/L
DBIL [8]: 0.018 mg/dL
GLC [8]: 185.2 mg/dL
IP [8]: 8.3 mg/dL
K [8]: 4.2 meq/L
LDH [8]: 190 IU/L
Na [8]: 142.4 meq/L
PL [8]: 139 mg/dL
RALB [8]: 3.1 g/dL
TBIL [8]: 0.018 mg/dL
TC [8]: 79.4 mg/dL
TG [8]: 43.4 mg/dL
TP [8]: 5.6 g/dL
gamma-GTP [8]: 1 IU/L
